Results: US20030187007A1, “Inhibitors of protein kinase for the treatment of disease” (priority 2001, published 2003)

What was measured:
Assay type in all cases: biochemical
[1] = target: CDK2 complexed with cyclin A (Homo sapiens, UniProt P24941); assay: Cyclin dependent kinase activity assay, phosphorylation of synthetic peptide PKTPKKAKKLRRR; settings: 0.1 mM ATP, read-out: CDK 2 Activity*
Description: (§1) The assay of cyclin dependent kinase activity was determined by monitoring the phosphorylation of a synthetic peptide, PKTPKKAKKLRRR. The assay mixture contained 0.1 mM cold ATP, ^33P-γ-ATP (2000-4000 cpm/μL), 0.1 mM peptide, 1 mM DTT, and 10 mM MgCl2 in 100 mM HEPES buffer pH 7.4. The assay mixture, along with inhibitor and CDK enzyme (0.3-0.4 U/mL; either CDK5 complexed with p25, CDK2 complexed with complexed with cyclin A), was mixed together in a microtiter plate in a final volume of 40 μL, sealed and incubated for 2 hours at 30° C. Following incubation, a 15 μL aliquot was added to a Whatman P81 filtration plate containing 100 μL 0.5% phosphoric acid. This mixture was allowed to stand for 5 minutes prior to filtration on a vacuum manifold. The filter plate was washed with 5 successive additions of 300 μL 0.5% phosphoric acid. The filtration plate was air dried for 10 minutes before sealing the bottom. After addition of scintillation fluid to the sealed plate, phosphorylated peptide was quantified in a scintillation counter.

CDK5 complexed with p25 = CDK5 complexed with p25 (Homo sapiens, UniProt Q00535); assay: as above; settings: CDK5 complexed with p25, 0.1 mM ATP; read-out: CDK 5 Activity*
Description: as §1

KDR = KDR (Homo sapiens, UniProt P35968); assay: Enzyme assay for  (KDR), IC50 determination; settings: 50 nM KDR, 500 μM ATP
Description: Enzyme assays for IC50 determinations were performed in 96-well titer plates, in a total reaction volume of 50 μL. Each reaction contained 1.5 μL of appropriate dilutions of inhibitor, 50 mM Hepes, pH 7.4, 1 mM DTT, 10 mM magnesium chloride, 2 mM phospho-poly(E4Y) (Sigma Chemical Company), 500 μM unlabeled ATP, 0.0025 μM [^33P]ATP (Amersham Pharmacia Biotech), and 50 nM KDR. All components except KDR were added to the wells, and the reaction was started by the addition of the enzyme. The reactions were mixed and incubated at room temperature for 1 hr, after which the reactions were quenched by the addition of 50 μL of 8% phosphoric acid. At this point, 90 μL aliquots of the samples were applied to positively charged DEAE 96-well filter plates (Millipore Corporation MADENOB10). The plates were incubated for 30 min at room temperature. The samples were aspirated and the wells were washed 3 times with 200 μL of 0.5% phosphoric acid. To each well, 50 μL of scintillation cocktail was added and counted for 60 sec in a TopCount microplate scintillation counter (Packard Instrument Company). The concentration of a compound that inhibited the activity of KDR by 50% (IC50) was determined based its inhibition curve.

Chain of KDR (P35968 20-1356): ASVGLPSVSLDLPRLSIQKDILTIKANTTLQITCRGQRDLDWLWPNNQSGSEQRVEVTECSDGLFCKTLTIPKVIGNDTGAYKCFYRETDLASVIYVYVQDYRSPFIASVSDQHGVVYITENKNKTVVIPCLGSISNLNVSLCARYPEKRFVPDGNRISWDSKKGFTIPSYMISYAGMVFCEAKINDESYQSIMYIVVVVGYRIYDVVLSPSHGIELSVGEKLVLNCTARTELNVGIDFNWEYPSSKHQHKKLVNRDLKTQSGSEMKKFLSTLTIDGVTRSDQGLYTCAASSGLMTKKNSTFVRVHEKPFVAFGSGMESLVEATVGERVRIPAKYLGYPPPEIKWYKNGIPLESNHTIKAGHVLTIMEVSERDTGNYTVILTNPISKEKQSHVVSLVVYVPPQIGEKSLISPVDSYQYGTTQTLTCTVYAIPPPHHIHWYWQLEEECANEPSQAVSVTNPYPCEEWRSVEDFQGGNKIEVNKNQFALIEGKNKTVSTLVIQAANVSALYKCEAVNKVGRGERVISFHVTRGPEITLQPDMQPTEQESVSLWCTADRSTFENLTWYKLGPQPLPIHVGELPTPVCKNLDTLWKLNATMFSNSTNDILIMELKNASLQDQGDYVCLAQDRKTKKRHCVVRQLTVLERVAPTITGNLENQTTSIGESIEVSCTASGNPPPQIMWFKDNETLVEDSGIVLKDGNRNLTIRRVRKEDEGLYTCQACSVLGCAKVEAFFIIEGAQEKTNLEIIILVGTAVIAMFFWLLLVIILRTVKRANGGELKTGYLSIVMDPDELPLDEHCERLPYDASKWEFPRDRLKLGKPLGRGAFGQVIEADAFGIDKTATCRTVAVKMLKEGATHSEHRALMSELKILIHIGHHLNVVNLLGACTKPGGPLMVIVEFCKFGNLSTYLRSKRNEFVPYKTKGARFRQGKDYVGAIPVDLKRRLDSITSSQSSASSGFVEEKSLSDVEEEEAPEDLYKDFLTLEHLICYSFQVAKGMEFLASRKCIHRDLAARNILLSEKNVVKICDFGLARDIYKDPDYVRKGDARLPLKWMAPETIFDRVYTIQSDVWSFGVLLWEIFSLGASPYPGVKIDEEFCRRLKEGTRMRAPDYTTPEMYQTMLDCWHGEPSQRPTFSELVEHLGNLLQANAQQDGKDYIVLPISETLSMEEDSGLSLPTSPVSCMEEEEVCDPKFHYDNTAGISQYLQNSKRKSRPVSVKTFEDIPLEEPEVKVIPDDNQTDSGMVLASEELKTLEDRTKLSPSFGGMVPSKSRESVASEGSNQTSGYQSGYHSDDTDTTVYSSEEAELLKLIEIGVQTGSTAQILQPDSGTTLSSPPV
Chain of CDK5 complexed with p25 (Q00535 whole entry): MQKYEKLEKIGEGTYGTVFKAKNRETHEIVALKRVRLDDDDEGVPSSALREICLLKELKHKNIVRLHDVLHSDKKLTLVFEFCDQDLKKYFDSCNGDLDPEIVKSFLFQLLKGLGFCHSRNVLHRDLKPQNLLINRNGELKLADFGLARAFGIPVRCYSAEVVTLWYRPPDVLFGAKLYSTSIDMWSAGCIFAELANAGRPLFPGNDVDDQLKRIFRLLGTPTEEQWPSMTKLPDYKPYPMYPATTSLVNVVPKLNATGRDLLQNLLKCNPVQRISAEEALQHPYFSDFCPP
Chain of CDK5 complexed with p25 (Q15078 99-307 partner limits assumed): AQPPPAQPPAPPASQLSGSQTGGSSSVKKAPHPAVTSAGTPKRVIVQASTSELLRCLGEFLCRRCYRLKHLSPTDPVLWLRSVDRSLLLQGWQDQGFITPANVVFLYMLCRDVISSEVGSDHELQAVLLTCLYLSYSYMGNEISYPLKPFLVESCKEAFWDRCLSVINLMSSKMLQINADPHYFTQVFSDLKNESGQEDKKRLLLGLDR

Row | IC50 [1] [µM] | IC50 (CDK5 complexed with p25) [µM] | IC50 (KDR) [µM] | Compound
1 | < 0.5 | < 0.5 | – | Nc1nccc(-c2cc(-c3ccc(O)c(F)c3)ccc2O)n1 [Example 53, 3-(2-Amino-pyrimidin-4-yl)-3′-fluoro-biphenyl-4,4′-diol]
2 | < 0.5 | < 0.5 | – | Nc1nc(Cl)cc(-c2cc(-c3ccc(O)cc3)ccc2O)n1 [Example 54, 3-(2-Amino-6-chloro-pyrimidin-4-yl)-biphenyl-4,4′-diol]
3 | < 0.5 | < 0.5 | – | Nc1nc(NCCO)cc(-c2cc(-c3ccc(O)cc3)ccc2O)n1 [Example 55, 3-[2-Amino-6-(2-hydroxy-ethylamino)-pyrimidin-4-yl]-biphenyl-4,4′-diol]
4 | < 0.5 | < 0.5 | – | Nc1nc(NCC(O)CO)cc(-c2cc(-c3ccc(O)cc3)ccc2O)n1 (stereo not shown) [Example 56, 3-[2-Amino-6-(2,3-dihydroxy-propylamino)-pyrmidin-4-yl]-biphenyl-4,4′-diol]
5 | < 0.5 | < 0.5 | – | Nc1nccc(-c2cc(-c3ccncc3)ccc2O)n1 [Example 62, 2-(2-Amino-pyrimidin-4-yl)-4-pyridin-4-yl-phenol]
6 | > 5 | < 0.5 | – | Nc1nccc(-c2cc(-c3cccnc3)ccc2O)n1 [Example 63, 2-(2-Amino-pyrimidin-4-yl)-4-pyridin-3-yl-phenol]
7 | < 0.5 | < 0.5 | – | Nc1cccc(-c2ccc(O)c(-c3ccnc(N)n3)c2)n1 [Example 64, 4-(6-Amino-pyridin-2-yl)-2-(2-amino-pyrimidin-4-yl)-phenol]
8 | < 0.5 | 0.5 to 2 | – | Nc1ccc(-c2ccc(O)c(-c3ccnc(N)n3)c2)cn1 [Example 65, 4-(6-Amino-pyridin-3-yl)-2-(2-amino-pyrimidin-4-yl)-phenol]
9 | 0.5 to 2 | 0.5 to 2 | – | Nc1ncc(-c2ccc(O)c(-c3ccnc(N)n3)c2)cn1 [Example 66, 2-(2-Amino-pyrimidin-4-yl)-4-(2-amino-pyrimidin-5-yl)-phenol]
10 | < 0.5 | < 0.5 | – | Nc1nccc(-c2ccc(O)c(-c3ccnc(N)n3)c2)n1 [Example 68, 2,4-Bis-(2-amino-pyrimidin-4-yl)-phenol]
11 | < 0.5 | < 0.5 | – | Nc1nccc(-c2cc(-c3ccc[nH]3)ccc2O)n1 [Example 69, 2-(2-Amino-pyrimidin-4-yl)-4-(1H-pyrrol-2-yl)-phenol]
12 | > 5 | 2 to 5 | – | Nc1nccc(-c2cc(-c3c[nH]c(=O)[nH]c3=O)ccc2O)n1 [Example 70, 5-[3-(2-Amino-pyrimidin-4-yl)-4-hydroxy-phenyl]-1 H-pyrimidine-2.4-dione]
13 | < 0.5 | < 0.5 | – | Nc1cccc(-c2cc(-c3ccnc(N)n3)ccc2O)n1 [Example 71, 2-(2-Aminopyridin-6-yl)-4-(2-aminopyrimidin-4-yl)-phenol]
14 | < 0.5 | < 0.5 | – | Nc1nc(NCCCCCO)cc(-c2cc(-c3ccc(O)cc3)ccc2O)n1 [Example 77, 3-[2-Amino-6-(5-hydroxy-pentylamino)-pyrimidin-4-yl]-biphenyl-4,4′-diol]
15 | > 5 | < 0.5 | – | Nc1nc(-c2cc(-c3ccc(O)cc3)ccc2O)cc(N2CCNCC2)n1 [Example 78, 3-(2-Amino-6-piperazin-1-yl-pyrimidin-4-yl)-biphenyl-4,4′-diol]
16 | < 0.5 | < 0.5 | – | Nc1nc(-c2cc(-c3ccc(O)cc3)ccc2O)cc(N2CCCC(CO)C2)n1 (stereo not shown) [Example 82, 3-[2-Amino-6-(3-hydroxymethyl-piperidin-1-yl)-pyrimidin-4-yl]-biphenyl-4,4′-diol]
17 | – | – | < 1 | Nc1nc(N[C@@H](CO)c2ccccc2)cc(-c2cc(-c3ccc4[nH]ccc4c3)ccc2O)n1 [Example 93, 2-[2-Amino-6-(2-hydroxy-1 R-phenyl-ethylamino)-pyrimidin-4-yl]-4-(1H-indol-5-yl)-phenol]
18 | – | – | 1 to 20 | Nc1cccc(-c2ccc(O)c(-c3ccnc(N)n3)c2)c1 [Example 94, 3′-Amino-3-(2-amino-pyrimidin-4-yl)-biphenyl-4-ol]

Row | IC50 [1] [µM] | IC50 (CDK5 complexed with p25) [µM] | IC50 (KDR) [µM] | Compound
19 | – | – | 1 to 20 | CC(C)(C)OC(=O)n1cccc1-c1ccc(O)c(-c2ccnc(N)n2)c1 [Example 95, 2-[3-(2-Amino-pyrimidin-4-yl)-4-hydroxy-phenyl]-pyrrole-1-carboxylic acid t-butyl ester]
20 | – | – | 1 to 20 | Nc1nc(N[C@@H](CO)Cc2c[nH]c3ccccc23)cc(-c2cc(-c3ccc(O)cc3)ccc2O)n1 [Example 96, 3-{2-Amino-6-[2-hydroxy-1R-(1H-indol-3-ylmethyl)-ethylamino]-pyrimidin-4-yl}-biphenyl-4,4′-diol]
21 | – | – | < 1 | Nc1nc(N[C@H](CO)c2ccccc2)cc(-c2cc(-c3ccc(O)cc3)ccc2O)n1 [Example 97, 3-[2-Amino-6-(2-hydroxy-1S-phenyl-ethylamino)-pyrimidin-4-yl]-biphenyl-4,4′-diol]
22 | – | – | < 1 | COc1ccc(Nc2cc(-c3cc(-c4ccc(O)cc4)ccc3O)nc(N)n2)cc1 [Example 98, 3-[2-Amino-6-(4-methoxy-phenylamino)-pyrimidin-4-yl]-biphenyl-4,4′-diol]
23 | – | – | < 1 | Nc1nc(N[C@H](CO)CSCc2ccccc2)cc(-c2cc(-c3ccc(O)cc3)ccc2O)n1 [Example 99, 3-[2-Amino-6-(2-benzylsulfanyl-1R-hydroxymethyl-ethylamino)-pyrimidin-4-yl]-biphenyl-4,4′-diol]
24 | – | – | < 1 | Nc1nc(NCCc2c[nH]c3ccccc23)cc(-c2cc(-c3ccc(O)cc3)ccc2O)n1 [Example 100, 3-{2-Amino-6-[2-(1-indol-3-yl)-ethylamino]-pyrimidin-4-yl} biphenyl-4,4′-diol]
25 | – | – | 1 to 20 | Nc1nc(-c2cc(-c3ccc(O)cc3)ccc2O)cc(N2CCN(Cc3ccccc3)CC2)n1 [Example 101, 3-[2-Amino-6-(4-benzyl-piperazin-1-yl)-pyrimidin-4-yl]-biphenyl-4,4′-diol]
26 | – | – | 1 to 20 | Nc1nc(N[C@@H](CO)Cc2c[nH]c3ccccc23)cc(-c2cc(-c3ccc(O)cc3)ccc2O)n1 [Example 102, 3-{2-Amino-6-[2-hydroxy-1R-(1 H-indol-3-ylmethyl)-ethylamino]-pyrimidin-4-yl}-biphenyl-4,4′-diol]
27 | – | – | 1 to 20 | CC(C)[C@@H](CO)Nc1cc(-c2cc(-c3ccc(O)cc3)ccc2O)nc(N)n1 [Example 103, 3-[2-Amino-6-(I -hydroxymethyl-2-methyl-propylamino)pyrimidin-4-yl]-biphenyl-4.4′-diol]
28 | – | – | 1 to 20 | CN1CCN(c2cc(-c3cc(-c4ccc(O)cc4)ccc3O)nc(N)n2)CC1 [Example 104, 3-[2-Amino-6-(4-methyl-piperazin-1-yl)-pyrimidin-4-yl]-biphenyl-4.4′-diol]
29 | – | – | 1 to 20 | Nc1nc(NCCN2CCOCC2)cc(-c2cc(-c3ccc(O)cc3)ccc2O)n1 [Example 105, 3-[2-Amino-6-(2-morpholin-4-yl-ethylamino)-pyrimidin-4-yl]-biphenyl-4,4′-diol]
30 | – | – | < 1 | Nc1nc(NCCc2ccccn2)cc(-c2cc(-c3ccc(O)cc3)ccc2O)n1 [Example 106, 3-[2-Amino-6-(2-pyridin-2-yl-ethylamino)-pyrimidin-4-yl]-biphenyl-4,4′-diol]
31 | – | – | 1 to 20 | Nc1nc(-c2cc(-c3ccc(O)cc3)ccc2O)cc(N2CCSCC2)n1 [Example 107, 3-(2-Amino-6-thiomorpholin-4-yl-pyrimidin-4-yl)-biphenyl-4,4′-diol]
32 | – | – | < 1 | Nc1nc(NCc2ccccc2-c2ccccc2)cc(-c2cc(-c3ccc(O)cc3)ccc2O)n1 [Example 108, 3-{2-Amino-6-[(biphenyl-2-ylmethyl)-amino]-pyrimidin-4-yl}-biphenyl-4,4′-diol]
33 | – | – | < 1 | Nc1nc(Nc2cccc(Cl)c2)cc(-c2cc(-c3ccc(O)cc3)ccc2O)n1 [Example 109, 3-[2-Amino-6-(3-chloro-phenylamino)-pyrimidin-4-yl]-biphenyl-4,4′-diol]
34 | – | – | < 1 | Nc1nc(Nc2ccc(Cl)cc2)cc(-c2cc(-c3ccc(O)cc3)ccc2O)n1 [Example 110, 3-[2-Amino-6-(4-chloro-phenylamino)-pyrimidin-4-yl]-biphenyl-4,4′-diol]
35 | – | – | < 1 | COc1cccc(Nc2cc(-c3cc(-c4ccc(O)cc4)ccc3O)nc(N)n2)c1 [Example 111, 3-[2-Amino-6-(3-methoxy-phenylamino)-pyrimidin-4-yl]-biphenyl-4,4′-diol]
36 | – | – | < 1 | Nc1nc(N[C@@H](CO)c2ccccc2)cc(-c2cc(-c3ccc(O)cc3)ccc2O)n1 [Example 112, 3-[2-Amino-6-(2-hydroxy-1-phenyl-ethylamino)-pyrimidin-4-yl]-biphenyl-4,4′-diol]
